Source: patent US20250090510A1, “eIF4G1-eIF1 INHIBITORS AND USE THEREOF” (YEDA RESEARCH AND DEVELOPMENT CO. LTD., priority 2022, published 2025)

Key:
parental NIH3T3 cells = assay: Polysome profiling and real-time PCR in parental cells; type: cell-based, mouse; conditions: i14G1-10 30 μM, i14G1-12 15 μM, 3 h
[1] = system: P. falciparum translation; assay: Puromycin incorporation western blot in P. falciparum blood cultures; type: cell-based, Plasmodium falciparum; conditions: i14G1-10 20 uM, i14G1-12 10 uM; 1 hour, puromycin 5 minutes
Description: FIGS. 8A-B: (8A) Bar graph of percent parasitemia in blood samples treated with i14G1-10 (20 μM) and i14G1-12 (10 μM) for 1 hour. DMSO treatment was used as a negative control. *=pVal; <0.05, ***=pVal<0.001 (8B) Photograph of a western blot and corresponding gel total protein staining of P. falciparum blood cultures treated with the inhibitors with or without the addition of puromycin. DMSO treatment and untreated cultures were used as a negative control.
Next, the method of action that caused the growth/survival inhibition was tested. […] Puromycin labels newly synthesized proteins and cell lysates were analysed by western blot with anti-puromycin antibody (FIG. 8B).

[2] = Analysis of uptake (intracellular levels) by LC-MS; type: in vitro ADME; conditions: for concentration by LC-MS, Media: Media (amount applied)
Description: To determine the intracellular levels of i14G1-10 and i14G1-12, cells treated with these drugs for 3 h were extensively washed and then analyzed by LC-MS. Both compounds were detected within the cells, but the amount of i14G1-12 was substantially lower than the amount that was applied (Table 4).

[3] = molecular target: rabbit reticulocyte lysate; assay: In-vitro translation of capped firefly luciferase mRNA; type: biochemical; conditions: 10 minutes pre-incubation, 90 minutes at 30° C.
HEK293T cells = assay: Cell cycle analysis, propidium iodide flow cytometry; type: cell-based, human; conditions: i14G1-10 20 uM, 16 hours; for cells in S phase / sub-G1 dead cells: i14G1-12 1 uM
Description: FIGS. 3A-F: i14G1-10 and i14G1-12 inhibit mRNA translation and sensitize cell survival of eIF4G1 and eIF1 depleted cells. (3A) In-vitro translation using rabbit reticulocyte lysate which was pre-incubated with different concentrations of i14G1-10 or i14G1-12 for 10 minutes followed by the addition of capped firefly luciferase mRNA. After 90 minutes at 30° C., the luminescence signal was measured and the IC50 was calculated. The data represents mean±SEM of 6 independent repeats. (3B) HEK293T cells were treated with DMSO (vehicle control), and sub-cytotoxic concentrations of i14G1-10 (20 μM) and i14G1-12 (10 μM) for 3h. Cell lysates were then subjected to sucrose gradient sedimentation to obtain polysome profiles. (3C) HEK293T cells were treated with the indicated concentrations of i14G1-10 and i14G-12 for 3 h, followed by the addition of puromycin (10 μg/ml) for 5 minutes, after which cells were lysed and analyzed by western blot using an anti-puromycin antibody and anti-GAPDH antibody that serves as a loading control. The graph represents the mean±SEM chemiluminescence signal intensity of puromycin labeling normalized to GAPDH of 3 independent experiments. The calculated IC-50 is shown. (3D) HEK293T cells were transfected with either control or eIF4G1 siRNA in the absence or presence of eIF4G1 expression plasmid. As the eIF4G1 siRNA pool is directed against the 3′UTR, which is absent from the eIF4G1 expression plasmid, the exogenous eIF4G1 is resistant to the siRNA. 48 h after transfection, cells were treated with the indicated concentrations of i14G1-10 and i14G-12 for 3 h, followed by a 5 minutes puromycin pulse as described in 3C. The graph represents the mean±SEM chemiluminescence signal intensity of puromycin labeling normalized to GAPDH of 3 independent experiments. The calculated IC-50 is shown. (3E) The graphs represent cell viability of the indicated cell lines in the presence of increasing concentrations of i14G1-10 and i14G1, analyzed by Luminescent Cell Viability Assay. (3F) Pie charts showing the cell cycle distribution of HEK293T cells treated with DMSO, i14G1-10 and i14G1-12.
Cell cycle and cell viability analyses. HEK293T were treated with DMSO, i14G1-10 (20 uM) and i14G1-12 (1 uM) for 16 hours and then were trypsinized, washed twice with ice cold PBS and fixed overnight in 70% ethanol. Then cells were washed twice with ice cold PBS and resuspended in staining buffer (0.1% triton X-100, 2 mg RNase A and […]), and incubated at 37° C. for 15 minutes. Cells were monitored by BC LSRII flow cytometer and data was analyzed using Modfit Lt Software.
This was true in breast cancer (MCF7), lung cancer (A549), colorectal cancer (HCT116), ovarian cancer (OVCAR8) and in a bone cancer sarcoma cell line (U20S). To examine whether the growth defect is associated with cell cycle progression, control and drug treated cells were subjected to DNA staining by propidium iodide and then a flow cytometry analysis to determine their distribution in the sub-G1 (dead cells), G1, S and G2/M phases of the cell cycle.

[4] = cells treated 3 h, extensively washed

Row | Compound | overall translation, polysome to monosome ratio (P/M) (parental NIH3T3 cells) | translation of ISR genes in polysome fractions (parental NIH3T3 cells) | protein synthesis (puromycin incorporation) [1] | concentration by LC-MS, Media [2] [ng/mL] | concentration by LC-MS, i14G1-10 treated cells [2, 4] | concentration by LC-MS, i14G1-12 treated cells [2, 4] | IC50 [3] [µM] | cells in G2/M phase of the cell cycle (HEK293T cells) | cells in S phase (HEK293T cells) | sub-G1 dead cells (HEK293T cells)
1 | O=C(/C=C/Sc1ccc(C(F)(F)F)cn1)c1ccccc1 [i14G1-10] | significant reduction in translation efficiency | upregulated | inhibited protein synthesis | 6200 | 1130 ± 40 ng/mL | Not detected | 5.44 | dramatic accumulation of cells in the G2/M phase | reduction in S | elevation in sub-G1 dead cells
2 | Cn1ccnc1S/C(=C/C=C(C#N)C#N)c1ccc(Cl)cc1 [i14G1-12] | significant reduction in translation efficiency | upregulated | inhibited protein synthesis | 3300 | Not detected |  | 4.14 |  | reduction in S | elevation in sub-G1 dead cells
